According to patent US12415799B2, “Indazole-fused cyclic compound” (Zhejiang Yangli Pharmaceutical Technology Co., Ltd., priority 2020, dated 2025):
Read-outs that look alike come from different tables or passages of the source.

Columns and labels:
ERα = ERα (Homo sapiens (Human), UniProt P03372); experiment: Degradation experiment of MCF-7 ERα (ELISA); format: cell-based; details: MCF-7 cell line, 4 hours incubation, total ERα ELISA; read-out: IC50 value of promoting ERα degradation
From the text: (2) Degradation Experiment of MCF-7 ERα Experimental Materials:
Phenol red-free MEM culture medium was purchased from Wisent, fetal bovine serum was purchased from Biosera, and Human Total ERα/NR3A1 ELISA kit was purchased from R&D. MCF-7 cell line was purchased from Cell Bank of Type Culture Collection of Chinese Academy of Sciences. Nivo5 multi-label analyzer (PerkinElmer).
MCF-7 cells were resuspended in culture medium (phenol red-free MEM+5% charcoal/dextran-treated fetal bovine serum+1% penicillin-streptomycin double antibody solution), and seeded in a clear 96-well cell culture plate with 80 μL per well containing 20,000 cells, and the cell culture plate was incubated overnight in a carbon dioxide incubator;
ELISA plate was coated with strips, human total estrogen receptor a capture antibody was diluted with 1×PBS with a final concentration of 1 μg/mL, and 100 μL of mixture was added to each well, and incubated overnight at 25° C.
Cell administration: The test compound was diluted to the 8th concentration with a multi-channel pipette, and the compound concentration was 20 μM and 4 μM, and then diluted to the 8th concentration of 0.256 nM in turn, and a double-duplicate experiment was set-up. 78 μL of culture medium was added to the middle plate, then 2 μL of gradient dilution compound per well was transferred to the middle plate according to the corresponding position, and 20 μL of the mixture per well was mixed evenly and transferred to the cell plate, and the final concentration of DMSO was 0.5%, and the mixture was incubated at 37° C. for 4 hours;
preparation of standard curve solution: 110 ng/mL of standard curve storage solution was 6-fold diluted with buffer (1×PBS containing 1 mM EDTA, 0.5% Triton X-100, pH 7.2 to 7.4) to obtain a solution with a concentration of 18.3 ng/mL, and then 91.5-fold diluted with buffer (1×PBS containing 1 mM EDTA, 0.5% Triton X-100, 1 M urea, pH 7.2 to 7.4) to obtain a solution with a concentration of 0.2 ng/mL, and 8-point gradient dilution was performed using buffer (1×PBS containing 1 mM EDTA, 0.5% Triton X-100, 1 M urea, pH 7.2 to 7.4) with a final concentration of […].
1×PBS was pre-cooled, and after the incubation of the compound, the supernatant was removed, and then the plate was washed with 250 μL of pre-cooled 1×PBS per well, then 30 µL of cell lysate per well (1×PBS containing 1 mM EDTA, 0.5% Triton X-100, 6 M urea, 1 mM active sodium orthovanadate, 2.5 mM sodium pyrophosphate, lx protease inhibitor, pH 7.2 to 7.4) was added, and lysed on ice for 15 minutes;
after cell was lysed in the cell plate, the cell lysate was 6-fold diluted with 150 μL of buffer (1×PBS containing 1 mM EDTA, 0.5% Triton X-100, pH 7.2 to 7.4) per well, and the mixture was mixed evenly by blowing with a multi-channel pipette, and 100 μL of solution per well was transferred to the ELISA plate;
the human total estrogen receptor a detection antibody stock solution (14.4 μg/mL) was 36-fold diluted with buffer (1×PBS containing 1% bovine serum albumin), and the final concentration of the detection antibody was 400 ng/mL, and 100 μL of the solution per well was transferred to the ELISA plate and incubated at 25° C. for 2 hours;
Data analysis: A, B, C and D in the four-parameter equation y=(A−D)/[1+(x/C)^B]+D were calculated according to the original data of the standard curve, wherein, y was the original OD450 value, x was the concentration of the corresponding point of the standard curve. According to the four-parameter equation and the OD450 reading of the original data of the sample, the concentration of ERα at the corresponding point was calculated. The equation (Sample−Min)/(Max−Min)×100% was used to convert the original data into inhibition rate, and the IC50 value could be obtained by curve fitting with four parameters (obtained by “log (inhibitor) vs. response—variable slope” mode in GraphPad Prism).
Max wells: Positive control wells reading at 100 nM Fulvestrant-treated cell wells […]

CYP1A2 = CYP1A2 (Homo sapiens (Human), UniProt P05177); format: in vitro ADME; details: microsomes
CYP1A2, sequence (P05177 whole entry): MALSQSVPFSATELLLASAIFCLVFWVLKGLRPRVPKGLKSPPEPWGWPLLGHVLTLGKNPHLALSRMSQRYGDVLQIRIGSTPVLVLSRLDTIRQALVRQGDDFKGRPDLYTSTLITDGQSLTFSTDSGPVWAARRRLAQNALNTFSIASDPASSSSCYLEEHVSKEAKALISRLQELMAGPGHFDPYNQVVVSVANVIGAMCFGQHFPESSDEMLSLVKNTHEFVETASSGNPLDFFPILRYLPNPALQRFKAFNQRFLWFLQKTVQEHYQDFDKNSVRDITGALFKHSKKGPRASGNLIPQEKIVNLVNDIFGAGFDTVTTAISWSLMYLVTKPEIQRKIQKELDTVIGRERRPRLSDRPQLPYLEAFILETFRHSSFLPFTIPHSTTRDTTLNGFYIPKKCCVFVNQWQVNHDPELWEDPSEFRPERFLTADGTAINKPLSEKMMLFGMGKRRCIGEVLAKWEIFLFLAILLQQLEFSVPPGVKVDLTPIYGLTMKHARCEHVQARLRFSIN
Procedure: (§1) Experimental purposes: To test the inhibitory effect of test compound on the activity of human liver microsomal cytochrome P450 isoenzymes (CYP1A2 and CYP3A4) (Corning, Co., Ltd.).
(§2) Experimental operation: Firstly, the test compound (10 mM) was subjected to gradient dilution to prepare a working solution (100×final concentration), and the concentration of the working solution was: 5, 1.5, 0.5, 0.15, 0.05, 0.015 and 0.005 mM, respectively, and the working solution of each positive inhibitor of P450 isoenzyme (CYP1A2 and CYP3A4) and its specific substrate mixture (5 in 1) were prepared; and then the human liver microsomes frozen in the −80° C. refrigerator were thawed on ice, and all the human liver microsomes were dissolved, diluted with PB, and a certain concentration of working solution (0.253 mg/mL) was prepared; 20 μL of substrate mixture was added to the reaction plate (20 μL of PB was added to the blank well), while 158 μL of human liver microsomal working solution was added to the reaction plate, and the reaction plate was placed on ice for later use; at this time, 2 μL of various concentrations of the test compound (N=1) and specific inhibitor (N=2) were added to the corresponding well, and the corresponding organic solvent was added to the non-inhibitor (test compound or positive inhibitor) group as a control group sample (a ratio of DMSO:MeOH in the test compound control sample was 1:1, a ratio of DMSO:MeOH in the positive control sample was 1:9); after pre-incubation in a water bath at 37° C. for 10 min, 20 μL of coenzyme factor (NADPH) solution was added to the reaction plate, and incubated in a water bath at 37° C. for 10 min; and 400 μL of cold acetonitrile solution (internal standard was 200 ng/mL tolbutamide and labetalol) was added to terminate the reaction; the reaction plate was placed on a shaker and shaked for 10 minutes; and then centrifuged at 4,000 rpm for 20 minutes; 200 μL of the supernatant was taken and added to 100 μL of water for sample dilution; finally the plate was sealed, shaked and shaked well, for LC/MS/MS detection.

CYP3A4 = CYP3A4 (Homo sapiens (Human), UniProt P08684); experiment: Cytochrome P450 isoenzyme inhibition, human liver microsomes; format: in vitro ADME
CYP3A4, sequence (P08684 whole entry): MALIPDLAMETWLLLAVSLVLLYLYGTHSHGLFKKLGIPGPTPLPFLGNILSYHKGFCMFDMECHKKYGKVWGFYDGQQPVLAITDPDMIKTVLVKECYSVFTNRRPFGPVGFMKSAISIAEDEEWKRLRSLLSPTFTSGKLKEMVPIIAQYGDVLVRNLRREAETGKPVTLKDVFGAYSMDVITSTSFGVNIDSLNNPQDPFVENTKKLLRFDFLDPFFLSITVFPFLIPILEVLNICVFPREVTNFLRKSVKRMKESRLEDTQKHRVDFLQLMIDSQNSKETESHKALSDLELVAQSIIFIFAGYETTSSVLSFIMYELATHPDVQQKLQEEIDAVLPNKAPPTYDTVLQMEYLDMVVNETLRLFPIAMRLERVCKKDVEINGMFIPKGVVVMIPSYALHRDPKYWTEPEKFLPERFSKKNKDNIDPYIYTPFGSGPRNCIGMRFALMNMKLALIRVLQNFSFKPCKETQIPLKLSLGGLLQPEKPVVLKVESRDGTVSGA
Procedure: as §1, §2

MCF-7 cells = experiment: MCF-7 cell proliferation inhibition experiment; format: cell-based; details: Homo sapiens, MCF7, 144 h, 6 days incubation, CellTiter-Glo, read-out: Anti-cell proliferation activity of MCF-7
Procedure: (1) MCF-7 Cell Proliferation Inhibition Experiment:
EMEM culture medium was purchased from Wisent, and fetal bovine serum was purchased from Biosera, Promega CellTiter-Glo reagent. MCF-7 cell line was purchased from Cell Bank of Type Culture Collection of Chinese Academy of Sciences. Nivo5 multi-label analyzer (PerkinElmer).
MCF-7 cells were seeded in a white 384-well plate with 600 cells per well in every […] of the cell suspension. The cell plate was placed in a carbon dioxide incubator and cultured overnight.
The test compound was diluted to the 10th concentration with a multi-channel pipette, and the compound concentration was 1 mM, 400 μM, and 80 μM, and then diluted to the 10th concentration of 1 nM in turn, and a double-duplicate experiment was set-up. 47.5 μL of culture medium was added to the middle plate, then 2.5 μL of gradient dilution compound per well was transferred to the middle plate according to the corresponding position, and 5 μL of the mixture per well was mixed evenly and transferred to the cell plate. The cell plate was placed in a carbon dioxide incubator and cultured for 6 days.
After 6 days of co-incubation of the compound, the culture medium was removed by centrifugation, and 25 μL of Promega CellTiter-Glo reagent was added to each well of the cell plate, and incubated at room temperature for 10 minutes to stabilize the luminescence signal. PerkinElmer Nivo multi-marker analyzer reading was used. In the experiment, the reading of 2 μM positive reference compound H3B-6545(US20160347717A1) was used as a positive control to participate in data calculation.
The equation % Inhibition=((RFUCmpd−AVER(RFUNeg.ctrl))/((AVER(RFUPos.Ctrl)−AVER(RFUNeg.ctrl))×100% was used to convert the original data into inhibition rate, and the compound curve was fitted by log(inhibitor)vs. response-Variable slope of Graphpad Prism 5. The IC50 value was calculated by the software through the formula Y=Bottom+(Top−Bottom)/(1+10^((Log IC50−X)*HillSlope)).

rat uterus = experiment: Uterine wet weight inhibition experiment in rat cubs; format: in vivo; details: 18-day-old female rat pups, oral, three consecutive days; compounds 25 mg/kg, Ethinylestradiol 0.1 mg/kg
Procedure: The purpose of this experiment was to evaluate the effect of the compound of the present disclosure on uterine growth inhibition in 18 to 21-day-old female rat pups (provided by Beijing Vital River Laboratory Animal Technology Co., Ltd.). In this experiment, 18-day-old female rat pups were orally administered the compound of the present disclosure at a dose of 25 mg/kg for three consecutive days, and the control group was orally administered 0.1 mg/kg of Ethinylestradiol for three consecutive days, and the blank group was not given any drug except the corresponding solvent. Three days after the administration, the rats were sacrificed, and the weight of the rat uterus was weighed to observe the effect of the test drug on the growth inhibition of the rat uterus. Inhibition rate=100×[(VehicleEE−Cpd)/(VehicleEE−Vehicle)], VehicleEE was the wet weight of the rat uterus in the control group (administered 0.1 mg/kg of Ethinylestradiol orally); Cpd was the wet weight of the rat uterus in administration group; Vehicle was the wet weight of the rat uterus in the blank group.

[1] = in vivo, cited from earlier work
breast cancer = details: intramuscular injection; cited from earlier work

ERα, sequence (P03372 whole entry): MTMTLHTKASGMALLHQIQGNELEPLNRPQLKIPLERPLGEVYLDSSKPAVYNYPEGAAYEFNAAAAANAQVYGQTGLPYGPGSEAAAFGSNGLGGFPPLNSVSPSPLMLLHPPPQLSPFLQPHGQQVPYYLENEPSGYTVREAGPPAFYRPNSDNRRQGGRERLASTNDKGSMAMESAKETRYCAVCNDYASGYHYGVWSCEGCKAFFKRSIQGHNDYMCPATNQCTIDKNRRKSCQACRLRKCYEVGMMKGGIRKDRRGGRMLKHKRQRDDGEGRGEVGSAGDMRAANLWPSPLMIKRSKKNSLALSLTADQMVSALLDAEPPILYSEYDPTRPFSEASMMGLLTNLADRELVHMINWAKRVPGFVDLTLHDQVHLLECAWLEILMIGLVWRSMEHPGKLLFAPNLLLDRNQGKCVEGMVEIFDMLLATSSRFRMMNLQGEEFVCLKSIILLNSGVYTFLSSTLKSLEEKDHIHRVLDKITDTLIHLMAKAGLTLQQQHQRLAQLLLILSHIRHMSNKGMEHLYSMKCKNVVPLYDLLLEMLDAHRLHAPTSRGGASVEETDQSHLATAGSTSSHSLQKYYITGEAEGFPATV

SMILES | DC50 (ERα) [nM] | IC50 (CYP1A2; human, 10 min) [nM] | IC50 (CYP3A4) [nM] | IC50 (MCF-7 cells) [nM] | other results
FCCCN1CC(Nc2cnc(C3=C(CC(F)(F)F)CCOc4c3ccc3[nH]ncc43)cn2)C1 [Compound 3] | 0.45 | > 50000 | 13600 | 1.37 | 
FCCCN1CC(Nc2ncc(C3=C(CC(F)(F)F)CCCc4c3ccc3[nH]ncc43)cn2)C1 [Compound 4] | 0.17 | > 50000 | 11100 |  | 
FCCCN1CC(Nc2cnc(C3=C(CC(F)(F)F)CCCc4c3ccc3[nH]ncc43)cn2)C1 [Compound 5] | 0.017 |  |  | 0.19 | 
FCCCN1CC(Nc2ccc(C3=C(CC(F)(F)F)CCCc4c3ccc3[nH]ncc43)nc2)C1 [Compound 6] | 0.42 |  |  | 0.31 | 
FCCCN1CC(Nc2cnc(C3=C(CC(F)(F)F)CCCc4c3ccc3[nH]ncc43)nc2)C1 [Compound 7] | 0.4 |  |  |  | 
FCCCN1CC(Nc2cnc(C3=C(CC(F)(F)F)CCCc4c3ccc3[nH]nc(F)c43)cn2)C1 [Compound 8] | 0.37 |  | 42100 | 0.7 | IC50 (CYP1A2): > 50000 nM
N#Cc1cc(C2=C(CC(F)(F)F)CCCc3c2ccc2[nH]nc(F)c32)ncc1NC1CN(CCCF)C1 [Compound 10] |  | 47500 | 30800 |  | 
C#C[C@]1(O)CC[C@H]2[C@@H]3CCc4cc(O)ccc4[C@H]3CC[C@@]21C [Ethinylestradiol, reference compound] |  |  |  |  | Inhibition rate (rat uterus): 0%; Ratio of uterine wet weight/rat body weight (rat uterus): 2.45 mg/g; Uterine wet weight (rat uterus): 132.2 mg
OCCCC1=C(c2ccc(OC3CN(CCCF)C3)cc2)c2ccc3[nH]ncc3c2CCC1 [Formate of 1] | 0.25 |  |  | 0.42 | 
C[C@]12CC[C@@H]3c4ccc(O)cc4C[C@@H](CCCCCCCCC[S+]([O-])CCCC(F)(F)C(F)(F)F)[C@H]3[C@@H]1CC[C@@H]2O (some centres unmarked) [fulvestrant, Fulvestrant] |  |  |  |  | oral bioavailability ([1]; po): close to zero; blood clearance rate [1]: high; breast cancer patients showing clinical response (breast cancer): about 50%
